Experimental data published in patent US12383653B2, “Neutral multidomain peptide hydrogels and uses thereof” (William Marsh Rice University, priority 2018, dated 2025).
“Also recorded” adds a separate entry of the source. Where a SMILES comes first, the peptide text is derived from it. [ ]: non-standard residue; d: D form. Hyp = O=C(O)[C@@H]1C[C@@H](O)CN1

Key:
[1] = Hydrogel formation (inverted-vial test, pH, ionic strength, buffers); assay type: physicochemical; details: for hydrogel formation at acidic, neutral and basic pH: 1% by weight, pH adjusted with HCl or NaOH, inverted-vial test / CD
Experimental: Hydrogel Formation. Peptide solutions of O5 were prepared at 1% by weight (4.2 mM) in 149 mM sucrose and 0.5×HBSS. This buffer system was chosen to be consistent with prior MDP experiments and find optimum gelling conditions for future in vivo and in vitro work. Peptide solutions were sonicated using a Microson Ultrasonic Cell Disruptor with a 2 mm microprobe. The instrument frequency was 22.5 kHz and a power output up to 10 watts (RMS) was used. Solutions were sonicated at room temperature for 1 or 10 cycles, where each cycle consisted of 10 pulses and 1 min relaxation time between cycles. For the study of hydrogelation of O5, K2 and E2 at different pH values and ionic strength, 1% by weight peptide solutions were prepared in deionized water, PBS, or HBSS. pH was adjusted using HCl or NaOH 0.1 M solutions.

[2] = 3D culture cytocompatibility, Calcein AM / Ethidium homodimer-1 viability and cell morphology; assay type: cell-based; details: mouse; day 1 after encapsulation, 1 wt.% hydrogel; read-out: percentage of viable cells
Experimental: (§1) Cytocompatibility and cell viability studies. All cell culture materials, not otherwise specified, were purchased from Gibco, Life Technologies. NIH-3T3 fibroblast cells were cultured in Dulbecco's Modified Eagle Medium (DMEM) supplemented with 10% Fetal Bovine Serum (FBS), 2% L-glutamine (200 mM), 1% sodium pyruvate (100 mM), and 1% pen-strep solution (5000 units/mL of penicillin and 5 mg/mL of streptomycin, Sigma-Aldrich, St. Louis, MO). Cells were maintained at 37° C. and 5% CO2 with humidity and split when reaching 80%-90% confluency by treatment with 0.25% trypsin-EDTA and neutralization with complete media. Cells were centrifuged for 6 min at 1600 rpm, then the cell pellet was dispersed in HBSS, counted and adjusted to the required concentration. 3D cell culture in K2 hydrogel was achieved by mixing a 2% by weight peptide stock solution in 298 mM sucrose with a cell suspension of 2×10^6 cells/mL in HBSS. The final concentration was 1% by weight K2 hydrogel in 149 mM sucrose and 0.5×HBSS with 1×10^6 cells/mL. For O5 peptide, hydrogel was prepared by sonication using only 90% of the required 149 mM sucrose-0.5×HBSS to obtain a 1% by weight concentration, the remaining 10% was added as a cell suspension, and mixed by pipetting into the gel to obtain a final concentration of 1×10^6 cells/mL evenly distributed though the volume of the hydrogel. 70 μL of seeded hydrogels were cultured in a Lab-Tek 16-well glass chamber ([…], Thermo Fisher, Rochester, NY) with 200 μL of medium and fed every 2 days by replacing 100 μL with fresh media. Cell viability was analyzed using a live/dead viability kit (Invitrogen, Thermo Fisher, Carlsbad, CA). At specific time points, the medium was removed, and gels were rinsed with 1×PBS, then 100 μL of staining solution containing 2 μM Calcein AM and 4 μM Ethidium homodimer-1 in DPBS were added. Cells were incubated from 15 to 30 min and imaged using a Nikon A1 Rsi fluorescent confocal microscope (Nikon Instruments, Tokyo, Japan). Three z-stack images of 100 μm deep per sample were taken at 20× using a 488 nm green channel and 561 nm red channel lasers. Images were processed with NIS Element and live/dead cell counting was performed on Imaris 3D/4D Image Processing software (Bitplane, Concord, MA).
(§2) To evaluate the cell morphology, hydrogels were rinsed with PBS and fixed with 10% buffered formalin for 30 min Cells were treated with 0.5% Triton X for 10 min and 100 mM glycine for 10 min, followed by 10% Bovine Serum Albumin (BSA) in HBSS block solution. Then cells were stained for filamentous actin with Alexa Fluor® 488-Phalloidin and for the nuclei with ProLong® Gold Antifade DAPI mounting media. Cell in the hydrogels were analyzed by confocal microscopy using a 40× water objective and processed as described.

[3] = tested on: NIH-3T3 fibroblasts; assay: as above; assay type: cell-based; details: for percentage of viable cells: day 3 compared with day 1; for cytotoxicity / viability over the culture: days 1 to 5, 1 wt.% hydrogel; for cell proliferation / viable cell density in the gel: up to day 5
Experimental: as §1, §2

[4] = Oscillatory rheology of 1 wt.% hydrogel; assay type: physicochemical
Experimental: Oscillatory Rheology. Rheological properties of O5 hydrogel were analyzed by oscillatory rheology using a TA Instruments AR-G2 rheometer (TA Instruments, New Castle, DE). Hydrogels were prepared 24 h before the analysis as described above. 150 μL of 1% by weight peptide hydrogels were transferred from a cut syringe onto the rheometer stage equipped with a 12 mm stainless-steel parallel plate set to a 1000 μm gap height. The following program was used to monitor the storage modulus (G′) and loss modulus (G″) under various conditions as has been previously published (Li et al., 2017). Strain sweep analysis was performed using an applied strain of 0.01%-200% at a frequency of 1 rad/s. Frequency sweep analysis was performed under 1% strain at 0.1-100 rad/s. Shear recovery analysis was performed by subjecting the peptide sample to 1% strain for 20 min, then 200% for 1 min, and finally 1% for 20 min, allowing for disruption of the hydrogel and monitoring of G′ and G″ recovery.

[5] = Secondary structure estimation from circular dichroism in TFE, least square linear method; assay type: physicochemical; details: TFE at 25° C., 1 wt.%
Experimental: Circular Dichroism (CD) spectroscopy. For secondary structure characterization, peptide solutions of 1% by weight (molar concentration is included in Table 2) were prepared in 2,2,2-trifluoroethanol (TFE, Sigma Aldrich, St. Louis, MO). CD spectra acquisition was performed in a CD Jasco J-810 spectropolarimeter (Jasco Inc., Easton, MD) using a 0.01 mm cuvette. Data were collected at room temperature from 180 to 250 nm at a speed of 50 nm/min, with a 0.1 nm data pitch and the spectra were averaged over 5 scans. To study the hydrogelation of O5, 1% by weight peptide solutions were made in 149 mM sucrose solution in 0.5× Hank's Balanced Salt Solution (HBSS, Life Technologies) and analyzed as previously described.
To estimate the secondary structure of O peptide series, data fitting using the least square linear method was performed in MATLAB (Mathworks, Natick, MA). (Hyp)6, O1(SL)6O1 and K2(SL)6K2 were used as basis spectra for polyproline type II, β-sheet and α-helix, respectively (FIG. 7).

[6] = In vivo host response, subcutaneous injection model; set-up: species or system mice
Experimental: In vivo compatibility studies. All experimental procedures were approved by the Rice University Institutional Animal Care and Use Committee (IACUC) and performed according to the Animal Welfare Act and NIH guidelines. Female C57BL/6 mice from 8 to 12 weeks were purchased from Charles River (Wilmington, MA). Mice were injected with 4 implants of 100 μL 1% by weight O5 hydrogel in the dorsal subcutaneous space using a 26-gauge needle. At days 3, 7, and 14 mice were euthanized, and implants were extracted, fixed with 10% neutral buffered formalin and processed into paraffin blocks. Tissue was sectioned at 5 μm thickness and stained with hematoxylin and eosin, and Masson's trichome under standard procedures. For fluorescent immunostaining, tissue sections were deparaffinized, hydrated and antigens were retrieved by boiling in sodium citrate buffer (10 mM sodium citrate, 0.05% Tween 20 at pH 6.0). Tissues were permeabilized with 0.5% Triton X and blocked with 1% BSA in PBS for 30 min. Tissues were incubated overnight at 4° C. with rat anti-Mouse F4/80 monoclonal antibody (1:50, clone BM8, eBioscience™, Cat #14-4801-82). Then, samples were incubated for 1 hour with goat anti-rat AlexaFluor® 568 (1:500, Invitrogen), followed by mounting with ProLong® Gold Antifade reagent with DAPI. Tissue slides were analyzed by confocal fluorescent microscopy.

For CC(=O)N[C@@H](CCCCN)C(=O)N[C@@H](CCCCN)C(=O)N[C@@H](CO)C(=O)N[C@@H](CC(C)C)C(=O)N[C@@H](CO)C(=O)N[C@@H](CC(C)C)C(=O)N[C@@H](CO)C(=O)N[C@@H](CC(C)C)C(=O)N[C@@H](CO)C(=O)N[C@@H](CC(C)C)C(=O)N[C@@H](CO)C(=O)N[C@@H](CC(C)C)C(=O)N[C@@H](CO)C(=O)N[C@@H](CC(C)C)C(=O)N[C@@H](CCCCN)C(=O)N[C@@H](CCCCN)C(N)=O [Peptide K2, Ac-KKSLSLSLSLSLSLKK-CONH2, reference compound], the “hydrogel formation at acidic, neutral and basic pH” value (“hydrogel formation at acidic” for short) [1] was “dependent on pH; also recorded: forms a gel at pH 11”, the “hydrogel formation at acidic” value ([1]; listed as K2(SL)6K2) was “gels only forming at neutral pH or at elevated ionic strength” and the viability at 24 h, 1 % by weight [2] was about 20%. The “percentage of viable cells” value [3] was “relatively unchanged”, the “cytotoxicity / viability over the culture” value [3] was “somewhat cytotoxic during the first days of cell culture” and the “cell proliferation / viable cell density in the gel” value [3] was “by day 5 cell density is significantly higher than days 1 and 3”.
In the case of CC(=O)N1C[C@H](O)C[C@H]1C(=O)N1C[C@H](O)C[C@H]1C(=O)N1C[C@H](O)C[C@H]1C(=O)N1C[C@H](O)C[C@H]1C(=O)N1C[C@H](O)C[C@H]1C(=O)N[C@@H](CO)C(=O)N[C@@H](CC(C)C)C(=O)N[C@@H](CO)C(=O)N[C@@H](CC(C)C)C(=O)N[C@@H](CO)C(=O)N[C@@H](CC(C)C)C(=O)N[C@@H](CO)C(=O)N[C@@H](CC(C)C)C(=O)N[C@@H](CO)C(=O)N[C@@H](CC(C)C)C(=O)N[C@@H](CO)C(=O)N[C@@H](CC(C)C)C(=O)N1C[C@H](O)C[C@H]1C(=O)N1C[C@H](O)C[C@H]1C(=O)N1C[C@H](O)C[C@H]1C(=O)N1C[C@H](O)C[C@H]1C(=O)N1C[C@H](O)C[C@H]1C(N)=O [Peptide O5, Ac-OOOOOSLSLSLSLSLSLOOOOO-CONH2] (Ac-[Hyp][Hyp][Hyp][Hyp][Hyp]SLSLSLSLSLSL[Hyp][Hyp][Hyp][Hyp][Hyp]-NH2), the “state of the peptide at 10 mg/mL” value ([1]; 10 mg/mL) is reported as “forms a hydrogel”, the “hydrogelation in cell culture media” value ([1]; 1% by weight in 149 mM sucrose and 0.5×HBSS, ultrasonication) is reported as “forms a self-supportive hydrogel” and the “hydrogel formation at acidic” value [1] is reported as “remains a hydrogel at acidic, neutral and basic pH; also recorded: remains a hydrogel at all pH”. The “pH range over which peptide remains a hydrogel” value ([1]; also in deionized water, PBS and HBSS) was 3-11, the “loss modulus (G″)” value [4] was 1.7±0.5 Pa and the “storage modulus (G′)” value [4] was 23.3±8.7 Pa. The “% PPII” value [5] was 50%, the “% α-helix” value [5] was 40.5% and the “% β-sheet” value [5] was 9.5%. For the same molecule, the “Predominant Structure” value [5] was “PPII”, the viability at 24 h, 1 % by weight [2] was about 70% and the “cell spreading and adhesion to the material” value ([3]; 5 days encapsulated, actin staining) was “do not spread and adhere to the material”. For the same molecule, the “cell recovery after extraction from the hydrogel” value ([3]; after 5 days of culture) was “recover, grow, and proliferate”, the “percentage of viable cells” value [3] was “relatively unchanged” and the “cytotoxicity / viability over the culture” value [3] was “good initial viability, which remains constant throughout the experiment”. For the same molecule, the “cell proliferation / viable cell density in the gel” value [3] was “not observed to proliferate”, the inflammatory response ([6]; compared to K2 hydrogel) was “weaker inflammatory response” and the implant degradation ([6]; day 14) was “almost completely degraded”. For the same molecule, the “collagen deposition / remodeling” value ([6]; day 14, Masson's trichrome) was “natural collagen is observed” and the fibrous encapsulation ([6]; subcutaneous implant, in contrast with PEG) was “not fibrously encapsulated”.
